Laboratory results from patent publication US9815851B2, “Pyrrolo carboxamides as modulators of orphan nuclear receptor RAR-related orphan receptor-gamma (RORγ, NR1F3) activity and for the treatment of chronic inflammatory and autoimmune diseases” (PHENEX PHARMACEUTICALS AG, priority 2011, dated 2017).
Where two headings read alike, the source gives them in different places.

Key:
RORγ = target: T1, RORγ (UniProt P51449); test: RORγ Gal4 Reporter Gene Assay in 293T cells (firefly and renilla luciferase); type: cell-based, human
T1 sequence (P51449 1-518): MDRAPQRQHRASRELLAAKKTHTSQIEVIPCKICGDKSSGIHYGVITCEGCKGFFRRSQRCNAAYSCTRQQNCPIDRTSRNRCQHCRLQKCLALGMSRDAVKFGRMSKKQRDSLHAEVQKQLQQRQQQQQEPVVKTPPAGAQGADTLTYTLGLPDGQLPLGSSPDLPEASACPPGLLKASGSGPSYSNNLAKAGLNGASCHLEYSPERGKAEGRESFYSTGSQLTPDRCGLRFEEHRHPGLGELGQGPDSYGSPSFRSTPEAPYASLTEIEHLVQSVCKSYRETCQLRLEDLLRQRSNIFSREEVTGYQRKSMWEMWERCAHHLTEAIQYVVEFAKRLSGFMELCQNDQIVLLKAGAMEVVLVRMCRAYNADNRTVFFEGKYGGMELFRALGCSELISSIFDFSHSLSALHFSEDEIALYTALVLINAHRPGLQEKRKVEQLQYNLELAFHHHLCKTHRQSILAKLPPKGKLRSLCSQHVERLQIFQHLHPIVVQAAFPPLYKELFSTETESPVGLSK

[1] = target: T2, RORγ ligand binding domain (LBD) (Homo sapiens, UniProt P51449); test: TR-FRET Activity Assay (ligand sensing, RORγ-LBD / coactivator peptide interaction, LANCE); type: biochemical
T2 construct: made in house; host or cells: E. coli BL-21 (BL3), vector pDEST15
T2 sequence (P51449 269-508 limits assumed): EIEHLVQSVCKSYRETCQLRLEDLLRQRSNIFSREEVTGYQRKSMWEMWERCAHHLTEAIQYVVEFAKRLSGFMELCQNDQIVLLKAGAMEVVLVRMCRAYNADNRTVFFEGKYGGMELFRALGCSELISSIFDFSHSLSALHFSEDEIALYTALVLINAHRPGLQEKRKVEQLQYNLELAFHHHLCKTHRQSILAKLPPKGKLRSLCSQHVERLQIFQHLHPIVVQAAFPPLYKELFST

[2] = second value of the cell, Gal4 reporter gene assay in 293T cells, firefly luciferase
[3] = third value of the cell, Gal4 reporter gene assay in 293T cells, renilla normalised luciferase
[4] = first value of the cell FRET/FF/REN, TR-FRET activity assay, read-out: pIC50 (FRET) (converted)

pIC50 (FF) (RORγ; [2])	pIC50 (REN) (RORγ; [3])	IC50 [1, 4] [nM]	Compound	pIC50 (FF) (RORγ)	pIC50 (REN) (RORγ)	IC50 [1] [nM]
7.2	7.3	1580	Cc1c(C(=O)N[C@H]2C[C@H](C(=O)O)C2)cc(-c2cc(C(C)(C)C)cc(C(F)(F)F)c2)n1CC1CCCCC1 [17/304]	–	–	–
6.4	6.2	1580	Cc1c(C(=O)NC2COC2)cc(-c2ccc(C(=O)NCC(C)(C)C)c(C(C)(C)C)c2)n1CC1CCCCC1 [1/32]	–	–	–
6.3	6.2	1580	Cc1c(C(=O)NC2CCOCC2)cc(-c2ccc(C(NC(C)(C)C)C(F)(F)F)c(C(F)(F)F)c2)n1CC1CCCCC1 (stereo not drawn) [Example 25]	–	–	–
5.9	6.0	3980	Cc1c(C(=O)NC2CCOCC2)cc(-c2cc(C(=O)NC(C)(C)C)cc(C(C)(C)O)c2)n1CC1CCCCC1 [17/322]	–	–	–
6.5	6.6	1580	Cc1c(C(=O)NC2CCOCC2)cc(-c2cnc(S(=O)(=O)NC(C)(C)C)c(C(F)(F)F)c2)n1CC1CCCCC1 [17/190]	–	–	–
6.1	6.1	2000	Cc1c(C(=O)NCCN2CCOCC2)cc(-c2ccc(S(=O)(=O)NC(C)(C)C)c(C(C)(C)C)c2)n1CC1CCCCC1 [1/11]	–	–	–
7.8	7.7	316	Cc1c(C(=O)NCC2(O)CCOCC2)cc(-c2cc(C(C)(C)C)cc(C3(C)CC3)c2)n1CC1CCCCC1 [17/64]	–	–	–
7.3	7.4	316	Cc1c(C(=O)NCC2CCN(S(C)(=O)=O)CC2)cc(-c2cc(C(C)(C)C)cc(C3(C)CC3)c2)n1CC1CCCCC1 [17/345]	–	–	–
7.6	7.7	316	Cc1c(C(=O)NCC(C)(C)NC(=O)C(C)O)cc(-c2cc(C(C)(C)C)cc(C3(C)CC3)c2)n1CC1CCCCC1 (stereo not drawn) [17/121]	–	–	–
6.8	6.9	501	Cc1c(C(=O)NC2CCOCC2)cc(-c2ccc(CC(=O)NC(C)(C)C)c(C(F)(F)F)c2)n1CC1CCCCC1 [17/131]	–	–	–
7.3	7.3	251	Cc1c(C(=O)NC2COC2)cc(-c2cc(C(C)(C)C)cc(C(C)(C)C)c2)n1CC1CCCCCC1 [1/115]	–	–	–
8.3	8.3	316	Cc1c(C(=O)NCC2(C(N)=O)CCOCC2)cc(-c2cc(C(C)(C)C)cc(C3(C)CC3)c2)n1CC1CCCCC1 [17/62]	–	–	–
6.5	6.5	1000	Cc1c(C(=O)NCC(C)(C)C(=O)NCCC(=O)O)cc(-c2cc(C(C)(C)C)c3c(c2)C2(CCO3)CC2)n1CC1CCCCC1 [11/3]	–	–	–
6.8	6.9	316	Cc1c(C(=O)NC2COC2)cc(-c2cc(C(C)(C)C)cc(C(C)(C)C)c2)n1C(C)C1CCCCC1 (stereo not drawn) [Example 1, 1-(1-Cyclohexylethyl)-5-(3,5-di-tert-butylphenyl)-2-methyl-N-(oxetan-3-yl)-1H-pyrrole-3-carboxamide]	–	–	–

Further lines, the compound ahead of its results:

Compound	pIC50 (FF) (RORγ; [2])	pIC50 (REN) (RORγ; [3])	IC50 [1, 4] [nM]	pIC50 (FF) (RORγ)	pIC50 (REN) (RORγ)	IC50 [1] [nM]
Cc1c(C(=O)NCC2(C)COC2)cc(-c2ccc(S(=O)(=O)NC(C)(C)C)c(C(C)(C)C)c2)n1CC1CCCCC1 [1/127]	–	–	–	6.3/7.5/7.4	6.3/7.5/7.4	501
Cc1c(C(=O)N[C@H]2C[C@H](C(=O)O)C2)cc(-c2cc(C(=O)N[C@@H](C)C(F)(F)F)cc(C3(C)CC3)c2)n1CC1CCCCC1 [17/358]	6.3	6.2	1000	–	–	–
Cc1c(C(=O)N[C@H]2C[C@H](C(=O)O)C2)c(Cl)c(-c2cc(C(C)(C)O)cc(C3(C)CC3)c2)n1CC1CCCCC1 [29/1]	6.8	6.8	3160	–	–	–
Cc1c(C(=O)NC2COC2)cc(-c2cc(CN3CCOCC3)cc(C(C)(C)C)c2)n1CC1CCCCC1 [1/108]	7.2	7.3	7940	–	–	–
Cc1c(C(=O)NC2CCOCC2)cc(-c2cc(C(=O)NC(C)(C)C)cc3ccccc23)n1CC1CCCCC1 [17/188]	6.8	6.9	794	–	–	–
Cc1c(C(=O)NC2CCOCC2)cc(-c2ccc(S(=O)(=O)NC(C)(C)C)c(C(C)(C)C)c2)n1CC1CCCC1 [17/212]	–	–	–	6.2/7.3/7.4	6.2/7.3/7.4	631
Cc1c(C(=O)N[C@H]2C[C@H](C(=O)O)C2)cc(-c2ccc(S(=O)(=O)NC(C)(C)C)c3c2CCCC3)n1CC1CCCCC1 [17/281]	7.7	7.7	1000	–	–	–
COCCNC(=O)c1cc(-c2cc(C(C)(C)C)c(O)c(C(C)(C)C)c2)n(CC2CCCCC2)c1C [1/46]	–	–	–	6.5/6.5/6.5	6.5/6.5/6.5	316
Cc1c(C(=O)NCCO)cc(-c2cc(C(C)(C)C)cc(C(C)(C)C)c2)n1CC1CCCCC1 [1/54]	–	–	–	6.4/6.3/6.4	6.4/6.3/6.4	398
CC(C)(C)NS(=O)(=O)c1ccc(-c2cc(C(=O)NC3CCOCC3)c(CO)n2CC2CCCCC2)cc1C(C)(C)C [17/117]	–	–	–	6.0/7.6/7.7	6.0/7.6/7.7	1000
Cc1c(C(=O)NC2COC2)cc(-c2cc(C(=O)NC(C)(C)C)cc(C(F)(F)F)c2)n1CC1CCCCC1 [Example 15, 5-(3-(tert-Butylcarbamoyl)-5-(trifluoromethyl)phenyl)-1-(cyclohexylmethyl)-2-methyl-N-(oxetan-3-yl)-1H-pyrrole-3-carboxamide]	–	–	–	6.3/6.9/6.9	6.3/6.9/6.9	501
Cc1c(C(=O)NC2CCOCC2)cc(-c2ccc(S(=O)(=O)N3CCCCC3(C)C)c(C(F)(F)F)c2)n1CC1CCCCC1 [17/69]	7.2	7.4	> 20000	–	–	–
Cc1c(C(=O)NC2CCC(C)(C(=O)O)CC2)cc(-c2ccc(S(=O)(=O)NC(C)(C)C)c(C(F)(F)F)c2)n1CC1CCCCC1 (stereo not drawn) [17/259]	7.2	7.2	1000	–	–	–
Cc1c(C(=O)NC2CCOCC2)cc(-c2ccc(S(=O)(=O)NC(C)(C)C)c(C(F)(F)F)c2)n1C1CC12CCCC2 (stereo not drawn) [17/175]	6.6	6.7	794	–	–	–
Cc1c(C(=O)N[C@H]2C[C@H](C(=O)O)C2)cc(-c2cc(C(=O)NC(C)(C)C(F)(F)F)cc(C3(C)CC3)c2)n1CC1CCCCC1 [17/360]	7.3	7.4	6310	–	–	–
Cc1c(C(=O)NCCC(C)(C)C(=O)O)cc(-c2ccc(-c3ccnn3C(C)C)c(C(F)(F)F)c2)n1CC1CCCCC1 [17/250]	6.6	6.5	1580	–	–	–
Cc1c(C(=O)NCCN2CCOCC2)cc(-c2ccc(S(=O)(=O)NC(C)(C)C)c3ccccc23)n1CC1CCCCC1 [17/269]	–	–	–	6.0/6.9/7.0	6.0/6.9/7.0	1000
Cc1c(C(=O)NC2CCOCC2)cc(-c2ccc(S(=O)(=O)NC(C)(C)C)c(C(F)(F)F)c2)n1CC1CC(F)(F)C1 [17/133]	6.3	6.3	1260	–	–	–
Cc1c(C(=O)N[C@H]2C[C@H](C(=O)O)C2)cc(-c2cc(C(=O)NC(C)(C)C)nc(C3(C)CC3)n2)n1CC1CCCCC1 [17/372]	6.3	6.2	3160	–	–	–
